Tests used:
Assay type in all cases: cell-based, human
cell line Z2 = assay: Differentiation of cell line Z2 with individual differentiation factors, Illumina microarray readout
Text: (§1) To reduce variations in gene expression due to cell cycle artifacts, and to capture an early gene expression profile of the cells, upon being expanded to six well plates, on the day the cells reached confluence, the cells were placed in media with a reduction of serum to 0.5% in the case where the original serum concentration was >5%. In all other cases, serum and/or other growth factors was reduced to 10% of their original values. These quiescence conditions were imposed for five days and all cultures were re-fed two days prior to harvest to reduce feeding difference artifacts. So, by way of example, if the original media was DMEM medium with 10% FCS, then the quiescence synchronization media was DMEM with 0.5% FCS. Total RNA was extracted directly from cells growing in 6-well or 6 cm tissue culture plates using Qiagen Rneasy mini kits according to the manufacturer's instructions. RNA concentrations were measured using a Beckman DU530 or Nanodrop spectrophotometer and RNA quality determined by denaturing agarose gel electrophoresis or an Agilent 2100 bioanalyzer. Whole-genome expression analysis was carried out using Affymetrix Human Genome U133 Plus 2.0 GeneChip® system, Illumina Human-6 v1 and HumanRef-8 v1 Beadchips (Illumina 1), and Illumina Human-6 v2 Beadchips (Illumina 2), and RNA levels for certain genes were confirmed by quantitative PCR. For Illumina BeadArrays, total RNA was linearly amplified and biotin-labeled using Illumina TotalPrep kits (Ambion), and cRNA was quality controlled using an Agilent 2100 Bioanalyzer. cRNA was hybridized to Illumina BeadChips, processed, and read using a BeadStation array reader according to the manufacturer's instructions (Illumina). Relative Fluorescence Unit (RFU) values for all of the cell lines with common probe sets were quantile normalized.
The cell lines of the present invention 7SMOO7 (also designated ACTC298 and used at P18), C4.4 (also designated ACTC87 and used at P14), E44 (also designated ACTC170 and used at P18), E69 (also designated ACTC101 and used at P15), SK17 (also designated ACTC162 and used at P14), SK31 (also designated ACTC164 used at P15), SM35 (also designated ACTC260 used at P12), T36 (also designated ACTC198 used at P19), T43 (also designated ACTC120 used at P17), W11 (also designated ACTC197 used at P12), and Z2 (also designated ACTC255 used at P12), are cultured to five day quiescence as described herein or alternatively exposed to differentiation conditions of Differentiation Factor Protocol I in Table VIII. […] RNA was isolated as described herein and analyzed by Illumina microarrays. […]

cell line SK17 = assay: Differentiation of cell line SK17 with individual differentiation factors, Illumina microarray readout; conditions: SK17, after day 14, retinoic acid added (1.0 uM)
Text: as §1, with “So, by way of example, if the original media was DMEM medium with 10% FCS, then the quiescence synchronization media was DMEM with 0.5% FCS. Total RNA was extracted directly from cells growing in 6-well or 6 cm tissue culture plates using Qiagen Rneasy mini kits according to the manufacturer's instructions.” left out, “Relative Fluorescence Unit (RFU) values for all of the cell lines with common probe sets were quantile normalized.” left out

cell line B16 = assay: Differentiation of cell line B16 in gels containing crosslinked hyaluronic acid and gelatin; conditions: B16, hyaluronic acid/gelatin hydrogel, in the presence of retinoic acid
Text: The cell line of the present invention designated B16 (ACTC59) that expresses the unique pattern of markers MKX (accession number NM_173576.1), CDH10 (accession number NM_006727.2), MEG3 (accession number NR_002766.1), SCUBE3 (accession number NM_152753.2), and distal HOX genes HOXA11 (accession number NM_000522.3), and HOXD11 (accession number NM_021192.2) when synchronized at quiescence as described herein by culturing 5 days at confluence in DMEM medium with 0.5% serum at passage 16-19 was differentiated in micromass conditions and in a hydrogel containing crosslinked hyaluronic acid and gelatin with supplemented growth factors from Table III as described in Table VIII under the headings “In vitro conditions to induce chondrogenenesis—Micromass Culture” and “Differentiation in gels containing crosslinked hyaluronic acid and gelatin” in the presence of TGFβ3 and retinoic acid as also described in Table VIII under the subheadings “Differentiation in Hydrogels Containing Crosslinked Hyaluronic Acid and Gelatin to Induce Chondrogenesis” and “Retinoic acid and EGF-Containing HyStem-CSS” respectively. […]

W10 cell line = assay: Differentiation of cell line W10, two weeks of culture with retinoic acid; conditions: 1.0 uM all trans retinoic acid
Text: The HAND2 and SCARA5 positive cell line W10 (also known as ACTC196) whose most distal HOX gene expression was HOXA4, B7, which is described in U.S. patent application Ser. No. 12/504,630 filed on Jul. 16, 2009 and titled “Methods to Accelerate the Isolation of Novel Cell Strains from Pluripotent Stem Cells and Cells Obtained Thereby”, incorporated herein by reference in its entirety, and whose gene expression markers at 18-21 doublings of clonal expansion are disclosed in Table 1, was passaged to P14. […] cells for 14 days under conditions described as In vitro conditions to induce chondrogenenesis—Micromass Culture in Table VIII, that are expected to cause chondrogenic differentiation in cells capable of such differentiation. […] The presence of MYH11 was confirmed by immunocytochemistry.

[1] = Z2 (P12), 14 days, EGF 100 ng/ml, RFU >150 considered positive

CC1=C(/C=C/C(C)=C/C=C/C(C)=C/C(=O)O)C(C)(C)CCC1 [retinoic acid, all-trans retinoic acid]
BMP7 expression by microarray (cell line Z2; Z2, 14 days, 1.0 uM retinoic acid): 271 RFU
MYH11 (smooth muscle marker) expression by microarray (cell line SK17): 1715 RFUs
renin (REN) expression by microarray (cell line SK17): markedly upregulated
NPPB (natriuretic peptide precursor B) expression (cell line B16): 11,851 RFUs
MYH11 expression (W10 cell line): induction of MYH11

bFGF: growth factor used as individual differentiation factor
BMP7 expression by microarray (cell line Z2; Z2, 14 days, 10 ng/mL bFGF): 196 RFU

recombinant human EGF: recombinant human EGF used as differentiation factor
BMP2 expression by microarray (cell line Z2; [1]): 1015 RFU
BMP7 expression by microarray (cell line Z2; [1]): 1084 RFU

Reference: patent publication US10920191B2, “Methods of screening embryonic progenitor cell lines” (LINEAGE CELL THERAPEUTICS, INC., priority 2008, dated 2021)
